Measured values as given in ChEMBL document CHEMBL1201862, “PubChem BioAssay data set” (2004).
Values joined by “and” are separate entries in the source; they are usually repeats but may differ in a detail not shown here. Equal values may be shown once.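 Results reflect a 48-hour exposure of cells in 96-well plates to compound at five concentrations. Here, GI50 denotes the concentration required for 50% inhibition of growth.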 Active and inactive are the calls of the source. Rule as the data show it: active = GI50 up to about 1.1 µM and inactive = higher.

What was measured:
Test in all cases: growth of human tumour cells (NCI), 48 h
SK-MEL-5 = tested on: SK-MEL-5
CCRF-CEM = tested on: CCRF-CEM
HOP-92 = tested on: HOP-92
Malme-3M = tested on: Malme-3M
OVCAR-3 = tested on: OVCAR-3
OVCAR-8 = tested on: OVCAR-8
NCI-H226 = tested on: NCI-H226
786-0 = tested on: 786-0
RPMI-8226 = tested on: RPMI-8226
PC-3 = tested on: PC-3
MCF7 = tested on: MCF7
EKVX = tested on: EKVX
SW-620 = tested on: SW-620
SNB-75 = tested on: SNB-75
T47D = tested on: T47D
U-251 = tested on: U-251
HCT-15 = tested on: HCT-15
RXF 393 = tested on: RXF 393
TK-10 = tested on: TK-10
SN12C = tested on: SN12C
HCC 2998 = tested on: HCC 2998
NCI-H522 = tested on: NCI-H522
A549 = tested on: A549
IGROV-1 = tested on: IGROV-1
SF-539 = tested on: SF-539
SK-MEL-2 = tested on: SK-MEL-2
HT-29 = tested on: HT-29
NCI-H460 = tested on: NCI-H460
HCT-116 = tested on: HCT-116
OVCAR-5 = tested on: OVCAR-5
MDA-MB-231 = tested on: MDA-MB-231
CAKI-1 = tested on: CAKI-1
HOP-62 = tested on: HOP-62
NCI/ADR-RES = tested on: NCI/ADR-RES
ACHN = tested on: ACHN
SK-OV-3 = tested on: SK-OV-3
SF-295 = tested on: SF-295
LOX IMVI = tested on: LOX IMVI
UACC-257 = tested on: UACC-257
SK-MEL-28 = tested on: SK-MEL-28
UO-31 = tested on: UO-31
MDA-N = tested on: MDA-N
K562 = tested on: K562
M14 = tested on: M14
SR = tested on: SR
OVCAR-4 = tested on: OVCAR-4
UACC-62 = tested on: UACC-62
DU-145 = tested on: DU-145
MDA-MB-435 = tested on: MDA-MB-435
COLO 205 = tested on: COLO 205
NCI-H23 = tested on: NCI-H23
KM12 = tested on: KM12
HL-60 = tested on: HL-60
MOLT-4 = tested on: MOLT-4
SNB-19 = tested on: SNB-19
SF-268 = tested on: SF-268
A498 = tested on: A498

With `Cn1c(-c2c(C3=CC(=O)N(c4ccccc4)C3=O)c3ccccc3n2C)cc2ccccc21` the GI50 (SK-MEL-5) was > 100 µM (inactive), the GI50 (CCRF-CEM) was 18.9 µM (inactive) and the GI50 (HOP-92) was > 100 µM (inactive). The GI50 (Malme-3M) was 7.41 µM (inactive), the GI50 (OVCAR-3) was > 100 µM (inactive) and the GI50 (OVCAR-8) was > 100 µM (inactive). For the same molecule, the GI50 (NCI-H226) was > 100 µM (inactive), the GI50 (786-0) was > 100 µM (inactive) and the GI50 (RPMI-8226) was 92.7 µM (inactive). For the same molecule, the GI50 (PC-3) was > 100 µM (inactive), the GI50 (MCF7) was > 100 µM (inactive) and the GI50 (EKVX) was 4.51 µM (inactive). For the same molecule, the GI50 (SW-620) was > 100 µM (inactive), the GI50 (SNB-75) was 55.8 µM (inactive) and the GI50 (T47D) was > 100 µM (inactive). For the same molecule, the GI50 (U-251) was > 100 µM (inactive), the GI50 (HCT-15) was over 100 µM and the GI50 (RXF 393) was 4.4 µM (inactive). The GI50 (TK-10) was > 100 µM (inactive), the GI50 (SN12C) was > 100 µM (inactive) and the GI50 (HCC 2998) was > 100 µM (inactive). For the same molecule, the GI50 (NCI-H522) was 50 µM (inactive), the GI50 (A549) was > 100 µM (inactive) and the GI50 (IGROV-1) was > 100 µM (inactive). The GI50 (SF-539) was > 100 µM (inactive), the GI50 (SK-MEL-2) was > 100 µM (inactive) and the GI50 (HT-29) was > 100 µM (inactive). The GI50 (NCI-H460) was > 100 µM (inactive), the GI50 (HCT-116) was > 100 µM (inactive) and the GI50 (OVCAR-5) was > 100 µM (inactive). For the same molecule, the GI50 (MDA-MB-231) was > 100 µM (inactive), the GI50 (CAKI-1) was > 100 µM (inactive) and the GI50 (HOP-62) was > 100 µM (inactive). The GI50 (NCI/ADR-RES) was > 100 µM (inactive), the GI50 (ACHN) was > 100 µM (inactive) and the GI50 (SK-OV-3) was 4.38 µM (inactive). The GI50 (SF-295) was 34.1 µM (inactive), the GI50 (LOX IMVI) was > 100 µM (inactive) and the GI50 (UACC-257) was > 100 µM (inactive). The GI50 (SK-MEL-28) was > 100 µM (inactive), the GI50 (UO-31) was > 100 µM (inactive) and the GI50 (MDA-N) was > 100 µM (inactive). The GI50 (K562) was 69.2 µM (inactive), the GI50 (M14) was > 100 µM (inactive) and the GI50 (SR) was 17.7 µM (inactive). The GI50 (OVCAR-4) was > 100 µM (inactive), the GI50 (UACC-62) was > 100 µM (inactive) and the GI50 (DU-145) was > 100 µM (inactive). The GI50 (MDA-MB-435) was > 100 µM (inactive), the GI50 (COLO 205) was > 100 µM (inactive) and the GI50 (NCI-H23) was > 100 µM (inactive). For the same molecule, the GI50 (KM12) was 21.8 µM (inactive), the GI50 (HL-60) was 45.1 µM (inactive) and the GI50 (MOLT-4) was 58.7 µM (inactive). The GI50 (SNB-19) was > 100 µM (inactive).
`CC(C)(C)OC(=O)C1C(=O)NC(=O)CC1C(OCc1ccccc1)C(OCc1ccccc1)C(COCc1ccccc1)OCc1ccccc1` (configuration not stated) was tested, and the GI50 (OVCAR-8) was > 100 µM (inactive) and 52.5 µM (inactive), the GI50 (NCI-H226) was > 100 µM (inactive) and 61.9 µM (inactive) and the GI50 (786-0) was > 100 µM (inactive). For the same molecule, the GI50 (PC-3) was > 100 µM (inactive) and 69.2 µM (inactive), the GI50 (EKVX) was > 100 µM (inactive) and the GI50 (SW-620) was > 100 µM (inactive). The GI50 (T47D) was 2.14 µM (inactive), the GI50 (HCT-15) was over 100 µM and the GI50 (TK-10) was > 100 µM (inactive). The GI50 (SN12C) was > 100 µM (inactive), the GI50 (HCC 2998) was > 100 µM (inactive) and the GI50 (SF-268) was 74 µM (inactive) and 71.4 µM (inactive). For the same molecule, the GI50 (IGROV-1) was > 100 µM (inactive), the GI50 (SF-539) was > 100 µM (inactive) and the GI50 (HT-29) was 16.6 µM (inactive). For the same molecule, the GI50 (OVCAR-5) was > 100 µM (inactive), the GI50 (NCI/ADR-RES) was > 100 µM (inactive) and 58.6 µM (inactive) and the GI50 (ACHN) was > 75 µM (inactive). For the same molecule, the GI50 (SF-295) was 50.6 µM (inactive), the GI50 (A498) was > 75 µM (inactive) and the GI50 (UACC-257) was > 100 µM (inactive) and 58.7 µM (inactive). For the same molecule, the GI50 (SK-MEL-28) was > 100 µM (inactive), the GI50 (MDA-N) was > 100 µM (inactive) and the GI50 (K562) was 65.8 µM (inactive) and 88.3 µM (inactive). The GI50 (M14) was > 100 µM (inactive) and 71.8 µM (inactive), the GI50 (OVCAR-4) was 50.6 µM (inactive) and the GI50 (DU-145) was > 75 µM (inactive). For the same molecule, the GI50 (COLO 205) was 58.2 µM (inactive), the GI50 (NCI-H23) was > 100 µM (inactive) and the GI50 (SNB-19) was > 100 µM (inactive).
With `O=C(N/N=C/c1cc(Cl)cc(Cl)c1O)c1ccccc1O` the GI50 (SK-MEL-5) was 1.57 µM (inactive), the GI50 (CCRF-CEM) was 0.279 µM (active) and the GI50 (OVCAR-3) was 0.305 µM (active). The GI50 (OVCAR-8) was 0.198 µM (active), the GI50 (SW-620) was 0.601 µM (active) and the GI50 (SNB-75) was 2.44 µM (inactive). For the same molecule, the GI50 (U-251) was 0.849 µM (active), the GI50 (HCT-15) was 0.46 µM and the GI50 (RXF 393) was 0.946 µM (active). The GI50 (TK-10) was 2.23 µM (inactive), the GI50 (SN12C) was 2.36 µM (inactive) and the GI50 (HCC 2998) was 2.17 µM (inactive). For the same molecule, the GI50 (NCI-H522) was 0.441 µM (active), the GI50 (SF-268) was 480 nM (active) and the GI50 (IGROV-1) was 2.62 µM (inactive). The GI50 (HT-29) was 3.65 µM (inactive), the GI50 (NCI-H460) was 0.656 µM (active) and the GI50 (OVCAR-5) was 2.08 µM (inactive). For the same molecule, the GI50 (ACHN) was 0.447 µM (active), the GI50 (SK-OV-3) was 0.687 µM (active) and the GI50 (SF-295) was 0.721 µM (active). The GI50 (LOX IMVI) was 0.398 µM (active), the GI50 (A498) was 7.5 µM (inactive) and the GI50 (UACC-257) was 2.04 µM (inactive). The GI50 (SK-MEL-28) was 1.31 µM (inactive), the GI50 (UO-31) was 2.88 µM (inactive) and the GI50 (K562) was 0.977 µM (active). The GI50 (M14) was 0.847 µM (active), the GI50 (SR) was 0.388 µM (active) and the GI50 (UACC-62) was 0.323 µM (active). The GI50 (HL-60) was 0.221 µM (active) and the GI50 (SNB-19) was 3.18 µM (inactive).
`OCC(O)C(O)C(O)C(/C=N\Nc1ncnc2c(Br)cc(Br)cc12)=N/Nc1ncnc2c(Br)cc(Br)cc12` (configuration not stated) was tested, and the GI50 (SK-MEL-5) was 3.45 µM (inactive) and 4.71 µM (inactive), the GI50 (Malme-3M) was 6.4 µM (inactive) and 3.76 µM (inactive) and the GI50 (OVCAR-3) was 4.28 µM (inactive) and 2.88 µM (inactive). The GI50 (NCI-H226) was 3.58 µM (inactive), the GI50 (MCF7) was 1.24 µM (inactive) and 817 nM (active) and the GI50 (SW-620) was 5.46 µM (inactive). For the same molecule, the GI50 (T47D) was 2.57 µM (inactive) and 2.62 µM (inactive), the GI50 (U-251) was 2.49 µM (inactive) and 4.46 µM (inactive) and the GI50 (SF-268) was 3.78 µM (inactive) and 3.15 µM (inactive). For the same molecule, the GI50 (IGROV-1) was 4.71 µM (inactive) and 2.49 µM (inactive), the GI50 (SF-539) was 8.85 µM (inactive) and the GI50 (SK-MEL-2) was 5.41 µM (inactive) and 3.27 µM (inactive). The GI50 (HT-29) was 4.84 µM (inactive) and 4.55 µM (inactive), the GI50 (MDA-MB-231) was 3.67 µM (inactive) and 3.79 µM (inactive) and the GI50 (CAKI-1) was 4.85 µM (inactive) and 6.34 µM (inactive). The GI50 (ACHN) was 5.58 µM (inactive) and 6.35 µM (inactive), the GI50 (LOX IMVI) was 6.43 µM (inactive) and 10.1 µM (inactive) and the GI50 (UACC-257) was 8.15 µM (inactive) and 12.9 µM (inactive). For the same molecule, the GI50 (MDA-N) was 7.46 µM (inactive) and 6.08 µM (inactive), the GI50 (K562) was 5.07 µM (inactive) and 5.15 µM (inactive) and the GI50 (M14) was 8.2 µM (inactive) and 8.38 µM (inactive). For the same molecule, the GI50 (SR) was 3.4 µM (inactive) and 5.25 µM (inactive), the GI50 (OVCAR-4) was 2.81 µM (inactive) and 3.27 µM (inactive) and the GI50 (DU-145) was 5.9 µM (inactive) and 3.42 µM (inactive). For the same molecule, the GI50 (COLO 205) was 3.17 µM (inactive) and 3.52 µM (inactive).
